# Patent US20260256792A1, “TREATMENT OF CHRONIC SPONTANEOUS URTICARIA BY ADMINISTERING (R)-2-[3-[4-AMINO-3-(2-FLUORO-4-PHENOXY-PHENYL)PYRAZOLO[3,4-D]PYRIMIDIN-1-YL]PIPERIDINE-1-CARBONYL]-4-METHYL-4-[4-(OXETAN-3-YL)PIPERAZIN-1-YL]PENT-2-ENENITRILE” (priority 2023, published 2026)
# System: moderate-to-severe chronic spontaneous urticaria (CSU)
# Assay: Phase 2 CSU study: urticaria activity score over 7 days (UAS7)
# Type: in vivo, human
# Conditions: Omalizumab-naïve
# Source text: The study comprises a 12 week, randomized, double-blind, placebo-controlled, multi-center, dose-ranging efficacy and safety phase, followed by a 40 week open label extension (OLE) phase (see FIG. 1). The study consists of three phases and an optional OLE phase. […] Clinically, CSU is characterized by the spontaneous and recurrent appearance of pruritic hives. The proposed primary endpoints were the UAS7 at Week 12 in EU and EU reference countries and the ISS7 in the US. Regardless of where a participant was from, all assessments were the same. The UAS7 score is a composite score containing both the HSS7 and the ISS7. This allowed a global assessment of the two key components of urticaria: hives and itch. […] The UAS is a validated PRO measure. […] The daily UAS scores range from 0 to 6 point/day. […] Patients were to complete the UAS using the e-diary. […] The following secondary endpoints were to be analyzed using the same approach as for the primary endpoint: • Change from baseline in UAS7 at Week 4 • Change from baseline in UAS7 at Week 12 (for US and US reference countries) • Change from baseline in ISS7 at Week 12 (except US and US reference countries) • Change from baseline in HSS7 at Week 12 The following responder secondary endpoints were to be analyzed using the Cochran-Mantel-Haenszel test adjusted by region: • Proportion of participants with UAS7<6 at Week 12 • Proportion of participants with UAS7=0 at Week 12 Participants who received selected prohibited medications and/or rescue medications were to be considered as non-responders for time points after the medication usage. For other participants, all available data including those collected during the off-treatment period were to be used to determine the responder/non-responder status. Missing data were to be considered as non-responders.
smiles,measurement,setting,value
"CC(C)(C=C(C#N)C(=O)N1CCC[C@@H](n2nc(-c3ccc(Oc4ccccc4)cc3F)c3c(N)ncnc32)C1)N1CCN(C2COC2)CC1 [rilzabrutinib, (R)-2-[3-[4-amino-3-(2-fluoro-4-phenoxy-phenyl)pyrazolo[3,4-d]pyrimidin-1-yl]piperidine-1-carbonyl]-4-methyl-4-[4-(oxetan-3-yl)piperazin-1-yl]pent-2-enenitrile]","Imputed non-responder n (%), UAS7 ≤6","400 mg QPM, Week 8",7 (18.9) n (%)
same,"Non-responder n (%), UAS7 = 0","400 mg QPM, Week 8",36 (97.3) n (%)
same,"Non-responder n (%), UAS7 ≤6","400 mg QPM, Week 8",34 (91.9) n (%)
same,"OR for rilzabrutinib vs. placebo, UAS7 = 0","400 mg QPM, Week 8",0.477
same,"RRD (%) for rilzabrutinib vs. placebo, UAS7 = 0","400 mg QPM, Week 8",−2.7 %
same,"RRD (%) for rilzabrutinib vs. placebo, UAS7 ≤6","400 mg QPM, Week 8",−8.4%
same,"Responder n (%), UAS7 = 0","400 mg QPM, Week 8",1 (2.7) n (%)
same,"Responder n (%), UAS7 ≤6","400 mg QPM, Week 8",3 (8.1) n (%)
same,"Imputed non-responder n (%), UAS7 = 0","400 mg QPM, Week 9",6 (16.2) n (%)
same,"Imputed non-responder n (%), UAS7 ≤6","400 mg QPM, Week 9",6 (16.2) n (%)
same,"Non-responder n (%), UAS7 = 0","400 mg QPM, Week 9",36 (97.3) n (%)
same,"Non-responder n (%), UAS7 ≤6","400 mg QPM, Week 9",34 (91.9) n (%)
same,"OR for rilzabrutinib vs. placebo, UAS7 = 0","400 mg QPM, Week 9",0.305
same,"OR for rilzabrutinib vs. placebo, UAS7 ≤6","400 mg QPM, Week 9",0.715
same,"RRD (%) for rilzabrutinib vs. placebo, UAS7 = 0","400 mg QPM, Week 9",−5.6 %
same,"RRD (%) for rilzabrutinib vs. placebo, UAS7 ≤6","400 mg QPM, Week 9",−3.0%
same,"Responder n (%), UAS7 = 0","400 mg QPM, Week 9",1 (2.7) n (%)
same,"Responder n (%), UAS7 ≤6","400 mg QPM, Week 9",3 (8.1) n (%)
same,"Imputed non-responder n (%), UAS7 = 0","400 mg QPM, Week 10",6 (16.2) n (%)
same,"Imputed non-responder n (%), UAS7 ≤6","400 mg QPM, Week 10",6 (16.2) n (%)
same,"Non-responder n (%), UAS7 = 0","400 mg QPM, Week 10",36 (97.3) n (%)
same,"Non-responder n (%), UAS7 ≤6","400 mg QPM, Week 10",35 (94.6) n (%)
same,"OR for rilzabrutinib vs. placebo, UAS7 = 0","400 mg QPM, Week 10",0.219
same,"OR for rilzabrutinib vs. placebo, UAS7 ≤6","400 mg QPM, Week 10",0.357
same,"RRD (%) for rilzabrutinib vs. placebo, UAS7 = 0","400 mg QPM, Week 10",−8.7 %
same,"RRD (%) for rilzabrutinib vs. placebo, UAS7 ≤6","400 mg QPM, Week 10",−8.6%
same,"Responder n (%), UAS7 = 0","400 mg QPM, Week 10",1 (2.7) n (%)
same,"Responder n (%), UAS7 ≤6","400 mg QPM, Week 10",2 (5.4) n (%)
same,"Imputed non-responder n (%), UAS7 = 0","400 mg QPM, Week 11",7 (18.9) n (%)
same,"Imputed non-responder n (%), UAS7 ≤6","400 mg QPM, Week 11",7 (18.9) n (%)
same,"Non-responder n (%), UAS7 = 0","400 mg QPM, Week 11",35 (94.6) n (%)
same,"Non-responder n (%), UAS7 ≤6","400 mg QPM, Week 11",34 (91.9) n (%)
same,"OR for rilzabrutinib vs. placebo, UAS7 = 0","400 mg QPM, Week 11",0.986
same,"OR for rilzabrutinib vs. placebo, UAS7 ≤6","400 mg QPM, Week 11",0.456
same,"RRD (%) for rilzabrutinib vs. placebo, UAS7 ≤6","400 mg QPM, Week 11",−8.5%
same,"Responder n (%), UAS7 = 0","400 mg QPM, Week 11",2 (5.4) n (%)
same,"Responder n (%), UAS7 ≤6","400 mg QPM, Week 11",3 (8.1) n (%)
same,"Imputed non-responder n (%), UAS7 = 0","400 mg QPM, Week 12",10 (27.0) n (%)
same,"Imputed non-responder n (%), UAS7 ≤6","400 mg QPM, Week 12",10 (27.0) n (%)
same,"Non-responder n (%), UAS7 = 0","400 mg QPM, Week 12",36 (97.3) n (%)
same,"Non-responder n (%), UAS7 ≤6","400 mg QPM, Week 12",35 (94.6) n (%)
same,"OR for rilzabrutinib vs. placebo, UAS7 = 0","400 mg QPM, Week 12",0.219
same,"OR for rilzabrutinib vs. placebo, UAS7 ≤6","400 mg QPM, Week 12",0.438
same,"RRD (%) for rilzabrutinib vs. placebo, UAS7 = 0","400 mg QPM, Week 12",−8.7 %
same,"RRD (%) for rilzabrutinib vs. placebo, UAS7 ≤6","400 mg QPM, Week 12",−6.1%
same,"Responder n (%), UAS7 = 0","400 mg QPM, Week 12",1 (2.7) n (%)
same,"Responder n (%), UAS7 ≤6","400 mg QPM, Week 12",2 (5.4) n (%)
same,"Imputed non-responder n (%), UAS7 = 0","400 mg TID, Week 1",0 n (%)
same,"Imputed non-responder n (%), UAS7 ≤6","400 mg TID, Week 1",0 n (%)
same,"Non-responder n (%), UAS7 = 0","400 mg TID, Week 1",34 (97.1) n (%)
same,"Non-responder n (%), UAS7 ≤6","400 mg TID, Week 1",27 (77.1) n (%)
same,"OR for rilzabrutinib vs. placebo, UAS7 ≤6","400 mg TID, Week 1",4.809
same,"RRD (%) for rilzabrutinib vs. placebo, UAS7 = 0","400 mg TID, Week 1",0.2 %
same,"RRD (%) for rilzabrutinib vs. placebo, UAS7 ≤6","400 mg TID, Week 1",15.9 %
same,"Responder n (%), UAS7 = 0","400 mg TID, Week 1",1 (2.9) n (%)
same,"Responder n (%), UAS7 ≤6","400 mg TID, Week 1",8 (22.9) n (%)
same,"Imputed non-responder n (%), UAS7 = 0","400 mg TID, Week 2",0 n (%)
same,"Imputed non-responder n (%), UAS7 ≤6","400 mg TID, Week 2",0 n (%)
same,"Non-responder n (%), UAS7 = 0","400 mg TID, Week 2",31 (88.6) n (%)
same,"Non-responder n (%), UAS7 ≤6","400 mg TID, Week 2",27 (77.1) n (%)
same,"OR for rilzabrutinib vs. placebo, UAS7 = 0","400 mg TID, Week 2",4.736
same,"OR for rilzabrutinib vs. placebo, UAS7 ≤6","400 mg TID, Week 2",4.455
same,"RRD (%) for rilzabrutinib vs. placebo, UAS7 = 0","400 mg TID, Week 2",8.3 %
same,"RRD (%) for rilzabrutinib vs. placebo, UAS7 ≤6","400 mg TID, Week 2",15.3 %
same,"Responder n (%), UAS7 = 0","400 mg TID, Week 2",4 (11.4) n (%)
same,"Responder n (%), UAS7 ≤6","400 mg TID, Week 2",8 (22.9) n (%)
